Laboratory results reported in patent US10738093B2, “Discovery of cationic nonribosomal peptides as Gram-negative antibiotics through global genome mining” (The Hong Kong University of Science and Technology, priority 2018, dated 2020).
Converted amounts (≈) assume the structure as drawn. Positions of bridges follow the written chain, without caps; N, C: chain ends. Non-standard residues stand in square brackets, D forms with d. Residues, ends and D or L forms follow the SMILES beside them. ξ: configuration not given here. *: point of attachment. Hexanoyl(4ξ-Me) = CCC(C)CCC(=O)*; dOrn = NCCC[C@@H](N)C(=O)O; Orn = NCCC[C@H](N)C(=O)O

Assays:
[1] = tested on: Escherichia coli ATCC 25922; experiment: microbe, parasite or virus in culture; type: cell-based; settings: ATCC 25922
Description: (§1) Minimum inhibitory concentration (MIC) was determined by broth microdilution according to CLSI guidelines. The test medium for most species was Mueller-Hinton broth (MHB). Bacteria were grown overnight to early stationary phase and adjusted in MHB to 5.0×10^5 colony-forming units per mL (c.f.u./mL) in the wells of 96-well microtiter plates, mixed with varying concentrations of test compounds and incubated at 37° C. for 24 h. […] MHBs containing 10% fetal bovine serum (Gibco), 21 mM MgCl, or 1.0 mg/ml LPS (lipopolysaccharides from Escherichia coli O55:B5, Sigma-Aldrich) were used to test their inhibitory effects.

[2] = tested on: Colistin-resistant E. coli (E. coli ATCC 25922 carrying mcr-1); type: cell-based, Escherichia coli
Description: as §1

E. coli Top10 [3] = type: cell-based, Escherichia coli; settings: Top10
Description: as §1

Acinetobacter baumannii = type: cell-based
Description: as §1

Bacillus subtilis 168 = type: cell-based; settings: 168
Description: as §1

Candida albicans = type: cell-based
Description: as §1

[4] = tested on: Enterobacter cloacae NRRL-B-413; type: cell-based; settings: NRRL-B-413
Description: as §1

[5] = tested on: Klebsiella pneumoniae NRRL-B-408; type: cell-based; settings: NRRL-B-408
Description: as §1

[6] = tested on: Methicillin-resistant Staphylococcus aureus ATCC 43300; type: cell-based
Description: as §1

[7] = tested on: Pseudomonas aeruginosa PAO1; type: cell-based; settings: PAO1
Description: as §1

[8] = tested on: K. pneumoniae NRRL-B-3521; type: cell-based, Klebsiella pneumoniae; settings: NRRL-B-3521
Description: as §1

E. cloacae NRRL-B-425 = type: cell-based, Enterobacter cloacae; settings: NRRL-B-425
Description: as §1

E. coli Top10 [9] = experiment: Time-kill assay; type: cell-based, Escherichia coli
Description: An overnight culture of E. coli Top10 or Pseudomonas aeruginosa PAO1 cells was diluted 1:10,000 in MHB and incubated at 37° C. with agitation at 180 rpm for 2 h (early exponential). The bacteria were then challenged with antibiotics at 10×MIC, brevicidine (20 μg/ml), laterocidine (20 μg/ml) or polymyxin B (10 μg/ml) at room temperature without shaking. An untreated sample of cells was used as a negative control. At intervals, 10 μL aliquots were removed, centrifuged at 10,000 g for 1 min and resuspended in 1.0 mL of sterile PBS. Tenfold-serially-diluted suspensions were plated on MHB agar plates and incubated at 37° C. overnight. Colonies were counted and the number of c.fu. per mL was calculated. For analysis of lysis, 300 μL of culture (OD600=1.0) were treated with 10×MIC of antibiotics for 24 h. Experiments were performed in triplicate.

E. coli Top10 [10] = experiment: Bacterial growth kinetics; type: cell-based, Escherichia coli; settings: E. coli cells exposed to compound
Description: A fresh single colony of E. coli Top10 was inoculated into MHB (5 mL) and grown with shaking at 225 rpm overnight. The bacteria were diluted to 1×10^5 c.f.u./mL in fresh MHB, grown […] to early log-phase (OD=0.15) and treated with the antibiotics of interest in the wells of a 96-well plate. Final antibiotic concentrations varied from 1×MIC to 8×MIC. The plate was then incubated at 30° C. overnight, with OD 600 measurements taken every 30 seconds.

E. coli ATCC 25922 [11] = experiment: Atomic force microscopy of treated E. coli; type: cell-based, Escherichia coli; settings: E. coli ATCC25922, 10×MIC
Description: (§2) The samples were then centrifuged at 8000 g for 10 min at 4° C., and the pellet was washed twice in 100 lpL of apyrogenic water. The bacteria resuspended in 50 μL of apyrogenic water were applied to mica disks and dried overnight at 28° C. before imaging. Atomic force micrographs were recorded on a Veeco Mulitmode AFM with NanoScope III controller operating in contact mode. The data were analyzed with NanoScope Analysis software v.1.40 (Veeco, USA). Scans were acquired at 25° C. at the rates of 1.0 Hz and 256 samples per line resolution. Downstream image processing and analysis were performed using NanoScope software (Bruker). Height images were flattened to compensate for cell curvature, and topographical sections were used to generate two-dimensional reconstructions of surface texture.

P. aeruginosa PAO1 = experiment: Atomic force microscopy of treated P. aeruginosa; type: cell-based, Pseudomonas aeruginosa
Description: as §2

E. coli ATCC 25922 [12] = experiment: Neutropenic mouse thigh infection model; type: in vivo, Escherichia coli
Description: In vivo activities of brevicidine and laterocidine were tested using the mouse thigh infection model. Animal studies were performed by Pharmacology Discovery Services Taiwan Ltd. (Taipei, Taiwan) in general accordance with standard guidelines on animal welfare in an AAALAC-accredited facility. The protocol was reviewed and approved by the Institutional Animal Care and Use Committee. Groups of five female specific-pathogen-free ICR (CD-1) mice weighing 22±2 g (˜5 weeks of age) were used. Animals were immunosuppressed with two intraperitoneal injections of cyclophosphamide, the first at 150 mg/kg 4 d before infection (day −4) and the second at 100 mg/kg 1 d before infection (day −1). On day 0, animals were inoculated intramuscularly (0.1 ml/thigh) in the right thigh with an E. coli ATCC 25922 suspension. Vehicle (10% DMSO, 1% Tween 80, 0.9% NaCl) and antibiotics were then subcutaneously injected 2 h and 8 h later. Due to limited amount of compounds 1-2, only one concentration of 1(30 mg/kg) or 2 (15 mg/kg) was used in this study. At 26 h after inoculation, animals were euthanized by CO2 asphyxiation before the muscle of the right thigh was harvested from each test animal. The removed muscle was homogenized in 5 mL of PBS, pH 7.4, with a polytron homogenizer. Homogenates in the amount of 0.1 mL were used for serial tenfold dilutions and plated onto a nutrient agar medium for colony count (c.f.u./g) determination.

CCC(C)CCC(=O)N[C@H](CC(N)=O)C(=O)N[C@H](Cc1ccc(O)cc1)C(=O)N[C@H](Cc1c[nH]c2ccccc12)C(=O)N[C@H](CCCN)C(=O)N[C@@H](CCCN)C(=O)NCC(=O)N[C@H](CCCN)C(=O)N[C@@H](Cc1c[nH]c2ccccc12)C(=O)N[C@@H]1C(=O)N[C@@H]([C@@H](C)CC)C(=O)NCC(=O)N[C@H](CO)C(=O)O[C@@H]1C (stereo partly drawn) [Compound 1, 4-Methyl-Hexanoyl-D-Asn-D-Tyr-D-Trp-D-Orn-Orn-Gly-D-Orn-Trp-Thr-Ile-Gly-Ser (cyclized via lactone formation between Thr and the C-terminus)] ({Hexanoyl(4ξ-Me)}-[dN][dY][dW][dOrn][Orn]G[dOrn]WTIG[dS]; ester 9-C)
MIC [1]: 2 µg/mL (≈ 1.32 µM)
MIC Ec [1]: 2 µg/mL (≈ 1.32 µM)
MIC [2]: 2 µg/mL (≈ 1.32 µM)
MIC (E. coli Top10 [3]): 2 µg/mL (≈ 1.32 µM)
MIC (Acinetobacter baumannii): 16 µg/mL (≈ 10.5 µM)
MIC Ab (Acinetobacter baumannii): 16 µg/mL (≈ 10.5 µM)
MIC (Bacillus subtilis 168): 32 µg/mL (≈ 21.1 µM)
MIC Bs (Bacillus subtilis 168): 32 µg/mL (≈ 21.1 µM)
MIC (Candida albicans): >64 µg/mL
MIC Ca (Candida albicans; Table 2, Candida albicans): ND (ND >64 μg/ml)
MIC [4]: 2 µg/mL (≈ 1.32 µM)
MIC En [4]: 2 µg/mL (≈ 1.32 µM)
MIC [5]: 2 µg/mL (≈ 1.32 µM)
MIC ([6]; ATCC 43300): >64 µg/mL
MIC MRSA ([6]; Table 2, Methicillin-resistant Staphylococcus aureus ATCC 43300): ND (ND >64 μg/ml)
MIC [7]: 1 µg/mL (≈ 0.658 µM)
MIC Pa [7]: 1 µg/mL (≈ 0.658 µM)
MIC [8]: 4 µg/mL (≈ 2.63 µM)
MIC (E. cloacae NRRL-B-425): 2 µg/mL (≈ 1.32 µM)
time of exposure to significant reduction of viable cells (E. coli Top10 [9]; 10 times the MIC): 30 min
time of exposure to slightly reduced cell viability (E. coli Top10 [9]; 10 times the MIC): 15 min
bactericidal against E. coli (E. coli Top10 [9]; growth kinetics, time-kill assay and lysis assay): bactericidal
time of growth at a reduced rate before steady decrease in cell count (E. coli Top10 [10]): 30 min
cell morphology by AFM (E. coli ATCC 25922 [11]): lost their regular rod-like shape and became lumpy and rugged
cell morphology by AFM (P. aeruginosa PAO1): lost their regular rod-like shape and became lumpy and rugged
bactericidal efficacy in mouse thigh infection (viable bacteria) (E. coli ATCC 25922 [12]; brevicidine 30 mg/kg or laterocidine 15 mg/kg, 2 times, after 26 h): reduced numbers of viable bacteria
reduction of c.fu. in thigh compared to the vehicle control (E. coli ATCC 25922 [12]; mice, 30 mg/kg subcutaneously, two doses, at 24 h): 5 log10
